Measurements published in US20020133846A1, “Method for protecting plants” (priority 1996, published 2002).
Read-outs that look alike come from different tables or passages of the source.

Key:
[1] = system: Phytophthora infestans; assay type: in vivo
[2] = system: Colletotrichum lagenarium; experiment: Action against Colletotrichum lagenarium on Cucumis sativus L., foliar application; assay type: in vivo
[3] = system: Colletotrichum lagenarium; experiment: Action against Colletotrichum lagenarium on Cucumis sativus L., soil application; assay type: in vivo
[4] = system: Pseudoperonospora cubensis; experiment: Action against Pseudoperonospora cubensis in cucumbers; assay type: in vivo
[5] = system: Puccinia recondita; experiment: Action against Puccinia recondita in wheat
Procedure: 7-day-old wheat plants were sprayed to drip point with a spray mixture prepared from a formulated active ingredient, or combination of active ingredients. After 4 days, the treated plants were infected with a conidia suspension of the fungus, and the treated plants were subsequently incubated for 2 days at a relative atmospheric humidity of 90-100% and 20 C. 10 days post-infection, the fungus infestation was assessed.

[6] = system: Cercospora nicotianae; experiment: Action against Cercospora nicotianae on tobacco plants; assay type: in vivo
[7] = system: Erysiphe graminis; experiment: Action against Erysiphe graminis on barley (residual-protective / systemic)
Procedure: Residual-protective action: Barley plants about 8 cm in height were sprayed to drip point with an aqueous spray mixture (max. 0.02 % active ingredient) and were dusted 3 to 4 days later with conidia of the fungus. The infected plants were stood in a greenhouse at 22°. Fungus infestation was generally evaluated 10 days after infection.
Systemic action: Barley plants about 8 cm in height were watered with an aqueous spray mixture (max. 0.002 % active ingredient, based on the volume of the soil). […] The plants were dusted with conidia of the fungus 3 to 4 days later. The infected plants were stood in a greenhouse at 22°. Fungus infestation was generally evaluated 10 days after infection.

[8] = system: Peronospora tabacina; experiment: Action against Peronospora tabacina on tobacco plants
Procedure: Tobacco plants (6 weeks old) were sprayed with a formulated solution of the test compound. Four days after treatment, the plants were inoculated with a sporangia suspension of the fungus, kept at high humidity for 4 to 5 days and then incubated further under a normal day/night sequence. Evaluation of the symptoms in the tests was based on the leaf surface infested with fungus. The infestation of the untreated plants corresponded to 0 % action.

[9] = system: Pyricularia oryzae; assay type: in vivo

O=C(O)c1cccc2nnsc12 [benzothiadiazole-7-carboxylic acid]
% action O (observed) ([1]; Table 26, comp. I alone 0.1 mg a.i. per liter): 0% | % action O (observed) ([1]; Table 26, comp. I alone 0.5 mg a.i. per liter): 9% | % action O (observed) ([1]; Table 26, comp. I alone 1 mg a.i. per liter): 22% | % action O (observed) ([1]; Table 26, comp. I alone 5 mg a.i. per liter): 45% | % action O (observed) ([2]; Table 4, comp. I alone 0.2 ppm): 5% | % action O (observed) ([2]; Table 4, comp. I alone 2 ppm): 22% | % action O (observed) ([2]; Table 6, comp. I alone 0.2 ppm): 3% | % action O (observed) ([2]; Table 6, comp. I alone 0.6 ppm): 51% | % action O (observed) ([2]; Table 7, comp. I alone 0.06 ppm): 16% | % action O (observed) ([2]; Table 7, comp. I alone 0.2 ppm): 22% | % action O (observed) ([2]; Table 7, comp. I alone 6 ppm): 60% | % action O (observed) ([3]; Table 5, comp. I alone 0.006 ppm): 0% | % action O (observed) ([3]; Table 5, comp. I alone 0.02 ppm): 40% | % action O (observed) ([3]; Table 5, comp. I alone 0.06 ppm): 49% | % action O (observed) ([3]; Table 5, comp. I alone 0.2 ppm): 91% | % action O (observed) ([4]; Table 27, comp. I alone 0.05 mg a.i. per liter): 0% | % action O (observed) ([4]; Table 27, comp. I alone 0.5 mg a.i. per liter): 6% | % action O (observed) ([4]; Table 27, comp. I alone 5 mg a.i. per liter): 66% | % action O (observed) ([5]; Table 20, comp. I alone 6 kg a.i. per ha): 20% | % action O (observed) ([5]; Table 20, comp. I alone 20 kg a.i. per ha): 40% | % action O (observed) ([6]; Table 11, comp. I alone 0.2 kg a.i. per ha): 0% | % action O (observed) ([6]; Table 11, comp. I alone 0.6 kg a.i. per ha): 3% | % action O (observed) ([6]; Table 11, comp. I alone 2 kg a.i. per ha): 69% | % action O (observed) ([6]; Table 11, comp. I alone 6 kg a.i. per ha): 79% | % action O (observed) ([6]; Table 12, comp. I alone 2 kg a.i. per ha): 69% | % action O (observed) ([6]; Table 12, comp. I alone 6 kg a.i. per ha): 79% | % action O (observed) ([6]; Table 12, comp. I alone 20 kg a.i. per ha): 100% | % action O (observed) ([7]; Table 1, comp. I alone 0.6 ppm): 0% | % action O (observed) ([7]; Table 1, comp. I alone 2 ppm): 40% | % action O (observed) ([7]; Table 1, comp. I alone 6 ppm): 89% | % action O (observed) ([7]; Table 2, comp. I alone 0.6 ppm): 14% | % action O (observed) ([7]; Table 2, comp. I alone 2 ppm): 27%

COc1ccc(C(=CC(=O)N2CCOCC2)c2ccc(Cl)cc2)cc1OC [dimethomorph, 4-[3-(4-chlorophenyl)-3-(3,4-dimethoxyphenyl)acryloyl]morpholine]
% action O (observed) ([8]; Table 28, comp. II alone 0.3 ppm): 52% | % action O (observed) ([8]; Table 28, comp. II alone 1 ppm): 52%

O=C1CCc2cccc3c2N1CC3 [Compound IIJ, 1,2,5,6-tetrahydro-4H-pyrrolo[3,2,1-ij]quinolin-4-one]
% action O (observed) ([9]; Table 14, comp. II alone 0.75 kg a.i. per ha): 46% | % action O (observed) ([9]; Table 14, comp. II alone 1.5 kg a.i. per ha): 82%
